Assay results taken from patent publication US20250197442A1, “Peptide Synthesis in Aqueous Solution” (priority 2023, published 2025).

Details: for amount of Tween 80 required to dissolve the Fmoc protected amino acid, relative to its amount: aqueous solution, room temperature; for solubility in aqueous solutions: without the dissolving procedure
Description: A process for dissolving Fmoc-AA in Aqueous Solution was developed and it is summarized as follows (FIG. 9). Firstly, a non-ionic surfactant is dissolved in a small portion of a water-miscible organic solvent, creating Solution A. Secondly, FAA is dissolved in another small portion of a water-miscible organic solvent, creating Solution B. These two solutions, Solution A and Solution B, are thoroughly mixed to create a homogeneous mixture. This mixture is then added vigorously to an aqueous solvent.
To enable the utilization of Fmoc-AA as a building block in an aqueous solution, a specialized procedure has been developed to render Fmoc-AA soluble in aqueous solvents. The present invention devised a method to render Fmoc-AA soluble in water. First, none ionic surfactant is dissolved in a small amount of water-mixable organic solution, creating solution A, and then secondly, a Fmoc-AA is dissolved in a small amount of water-mixable organic solvent to create solution B, Solution A is thoroughly mixed with Solution B. The resulting mixture is then vigorously added to an aqueous solution. Fmoc-AA aqueous solution is obtained (FIG. 9),
4 grams of Tween 80 are added to 2 ml of DMSO to create solution A. and 1 grams of Fmoc-AA are added to 5 ml of DMSO to create solution B, solution A and solution B are mixed thoroughly, and then the resulting mixture is added to 88 ml of water to obtain a 1% concentration of Fmoc-AA in aqueous solution.
• Step 1: Dissolve 1.08 grams of Fmoc-Gly in 6.13 ml of DMSO solvent. Next, add 6.00 milliliters (mL) of a 70% Tween 80 in DMSO solution to the Fmoc-Gly DMSO solution. • Step 2: Pour this mixture into 87 mL of deionized (DI) water.
Dissolve 0.18 grams of Fmoc-Phe in 1.98 DMSO of solvent. Next, add 2.26 milliliters (mL) of a 70% Tween 80 in DMSO solution to Fmoc-Phe solution.
Transfer this mixture into 20.38 mL of deionized water.
Gradually, add 70% T dropwise until the solution becomes clear.
This process yields a solution containing 0.72% Fmoc-Phe in an aqueous solution with 10.80% DMSO.

O=C(O)CNC(=O)OCC1c2ccccc2-c2ccccc21 [Fmoc-Gly, Fmoc-Glycine]
amount of Tween 80 required to dissolve the Fmoc protected amino acid, relative to its amount: approximately four times | solubility in aqueous solutions: poor solubility

O=C(N[C@@H](Cc1ccccc1)C(=O)O)OCC1c2ccccc2-c2ccccc21 [Fmoc-Phe, Fmoc-Phenylalanine]
amount of Tween 80 required to dissolve the Fmoc protected amino acid, relative to its amount: approximately eight times | effect of raising the temperature on solubility in aqueous solution (raised temperature): significantly increase the solubility | solubility in aqueous solutions: poor solubility
